Tests used:
barnyardgrass [1] = test: Test B pre-/postemergence herbicide test; assay type: in vivo, Echinochloa crus-galli
Procedure, shortened: (§1)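 Flooded paddy rice and barnyardgrass were treated at the 2-leaf stage; upland plantings received compound either on sown seed or on 1- to 4-leaf seedlings. All were kept 13–15 days in a greenhouse and scored visually, 0–100, relative to untreated plants.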

cocklebur = test: Test B pre-/postemergence herbicide test; assay type: in vivo, Xanthium strumarium
Procedure, shortened: as §1

ducksalad [2] = test: Test C flooded paddy test; assay type: in vivo, Heteranthera limosa; settings: for Plant response rating, Ducksalad: visual rating after 12 to 14 days
ducksalad [3] = test: Test B flooded paddy test; assay type: in vivo, Heteranthera limosa; settings: 1000 g ai/ha, scale 0 to 100 (0 no effect, 100 complete control)
Procedure, shortened: (§2)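 After treating 2-leaf paddy plants or 2–18 cm postemergence plants (1 to 4 leaves) with formulated chemical, researchers kept them in a greenhouse for 13–15 days. Effects were judged visually versus controls: 0 indicates none, 100 total control.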

morningglory = test: Test B pre-/postemergence herbicide test; assay type: in vivo, Ipomoea coccinea
Procedure, shortened: as §1

pigweed = test: Test B pre-/postemergence herbicide test; assay type: in vivo, Amaranthus retroflexus
Procedure, shortened: (§3)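 Pre: seeds sown, then sprayed. Post: 1–4-leaf plants (2–18 cm) sprayed at the same time. Paddy: flooded, treated at 2-leaf stage. Formulation: non-phytotoxic solvent with surfactant. Greenhouse 13–15 days; visual 0–100 score relative to controls.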

corn = test: Test B pre-/postemergence herbicide test; assay type: in vivo, Zea mays
Procedure, shortened: as §3

rice [4] = test: Test C flooded paddy test; assay type: in vivo, Oryza sativa; settings: for Plant response rating, Rice: visual rating after 12 to 14 days
Procedure, shortened: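 Postemergence sprays applied to plants 2 to 18 cm tall (1- to 4-leaf stage); paddy species grown to 2-leaf stage under flooding. After 12 to 14 days in greenhouse, visual rating versus untreated controls on 0–100 scale (0 no effect, 100 complete control).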

lambsquarters = test: Test B pre-/postemergence herbicide test; assay type: in vivo, Chenopodium album
Procedure, shortened: as §3

barnyardgrass [5] = test: Test C flooded paddy test; assay type: in vivo, Echinochloa crus-galli; settings: for Plant response rating, Barnyardgrass: visual rating after 12 to 14 days
Procedure, shortened: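 Injury scored visually against controls on a 0 (no effect) to 100 (complete control) scale, 12 to 14 days after treatment in greenhouse. Flooded paddy plants treated at 2-leaf stage; postemergence plants at 1- to 4-leaf stage, 2 to 18 cm tall.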

wheat = test: Test B postemergence herbicide test; assay type: in vivo, Triticum aestivum; set-up: key to Wheat plant response rating: 0 = no effect, 100 = complete control
Procedure, shortened: (§4)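 Visual ratings, 0 (no effect) to 100 (complete control), made versus controls after 13–15 d greenhouse. Paddy plants treated at 2-leaf stage; postemergence plants at 1- to 4-leaf stage, 2–18 cm tall.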

rice [6] = test: Test B pre-/postemergence herbicide test; assay type: in vivo, Oryza sativa; settings: preemergence
Procedure, shortened: as §3

giant foxtail = test: Test B pre-/postemergence herbicide test; assay type: in vivo, Setaria faberi
Procedure, shortened: as §3

[7] = system: small flower umbrella sedge; test: Test B flooded paddy test; assay type: in vivo, Cyperus difformis; settings: 1000 g ai/ha, scale 0 to 100 (0 no effect, 100 complete control)
Procedure, shortened: as §2

Surinam grass = test: Test B pre-/postemergence herbicide test; assay type: in vivo, Urochloa decumbens
Procedure, shortened: as §3

velvetleaf = test: Test B pre-/postemergence herbicide test; assay type: in vivo, Abutilon theophrasti
Procedure, shortened: as §3

large crabgrass = test: Test B pre-/postemergence herbicide test; assay type: in vivo, Digitaria sanguinalis
Procedure, shortened: as §3

barnyardgrass [8] = test: Test B flooded paddy test; assay type: in vivo, Echinochloa crus-galli; settings: 1000 g ai/ha, scale 0 to 100 (0 no effect, 100 complete control)
Procedure, shortened: as §2

[9] = system: smallflower umbrella sedge; test: Test C flooded paddy test; assay type: in vivo, Cyperus difformis; settings: for Plant response rating, Sedge, Umbrella: visual rating after 12 to 14 days
wild oat = test: Test B postemergence herbicide test; assay type: in vivo, Avena fatua
Procedure, shortened: as §4

blackgrass = test: Test B postemergence herbicide test; assay type: in vivo, Alopecurus myosuroides
Procedure, shortened: as §2

rice [10] = test: Test B flooded paddy test; assay type: in vivo, Oryza sativa; settings: 1000 g ai/ha, scale 0 to 100 (0 no effect, 100 complete control)
Procedure, shortened: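 Plants grow to 1- to 4-leaf stage (2–18 cm) for postemergence spraying, or to 2-leaf stage for the paddy test. Formulated compound is applied. Greenhouse holding lasts 13–15 days. Response is scored visually relative to controls, 0 no effect to 100 complete control; a dash means no result.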

[11] = 125 g ai/ha; 0 = no effect, 100 = complete control; preemergence
[12] = 125 g ai/ha; visual rating, scale 0 (no effect) to 100 (complete control); postemergence
[13] = 500 g ai/ha; visual rating, 0 = no effect, 100 = complete control; preemergence
[14] = postemergence, 500 g ai/ha; scale 0 to 100, 0 is no effect, 100 is complete control
[15] = 125 g ai/ha, scale 0 to 100 (0 no effect, 100 complete control)
[16] = 250 g ai/ha, scale of 0 to 100, 0 is no effect, 100 is complete control
[17] = 500 g ai/ha, scale 0 to 100 (0 no effect, 100 complete control)
[18] = 62 g ai/ha, scale 0 to 100 (0 no effect, 100 complete control)
[19] = postemergence, 125 g ai/ha; visual rating, scale 0 (no effect) to 100 (complete control)
[20] = postemergence; 31 g ai/ha; scale 0 to 100
[21] = preemergence, 125 g ai/ha; 0 to 100 scale, 0 is no effect, 100 is complete control
[22] = 125 g ai/ha, scale of 0 to 100, 0 is no effect, 100 is complete control
[23] = 250 g ai/ha, scale 0 to 100 (0 no effect, 100 complete control)

CCN(CC)C(=O)c1ccc(F)c(NC(=O)C2CC(C(C)(C)C)=NN2CC)c1 (racemic) [Compound 308]
100: Plant response rating, Pigweed (pigweed; [13]) | Lambsquarters plant response rating (0 to 100 scale) (lambsquarters; [11]) | Plant response rating, Lambsquarters (lambsquarters; [13]) | Plant response rating, Velvetleaf (velvetleaf; [13])
30: Blackgrass plant response rating (blackgrass; [14])
90: Ducksalad plant response rating (ducksalad [3]) | Plant response rating, Foxtail, Giant (giant foxtail; [13]) | Sedge, Umbrella plant response rating [7] | Barnyardgrass plant response rating (barnyardgrass [8])
10: Barnyardgrass plant response rating (barnyardgrass [1]; [14]) | Plant response rating, Morningglory (morningglory; [13]) | Corn plant response rating (corn; [14]) | Wheat plant response rating (wheat; [12]) | Foxtail, Giant plant response rating (0 to 100 scale) (giant foxtail; [11]) | Foxtail, Giant plant response rating (giant foxtail; [12]) | Surinam Grass plant response rating (Surinam grass; [12]) | Velvetleaf plant response rating (velvetleaf; [12]) | Crabgrass, Large plant response rating (large crabgrass; [14]) | Oat, Wild plant response rating (wild oat; [12]) | Blackgrass plant response rating (blackgrass; [12])
25: Rice plant response rating (rice [4]; [15]) | Barnyardgrass plant response rating (barnyardgrass [5]; [16]) | Sedge, Umbrella plant response rating [9, 15]
15: Ducksalad plant response rating (ducksalad [2]; [16]) | Rice plant response rating (rice [4]; 62 g ai/ha, scale 0 to 100)
70: Pigweed plant response rating (pigweed; [14]) | Plant response rating, Corn (corn; [13]) | Plant response rating, Rice (rice [4]; [17]) | Plant response rating, Crabgrass, Large (large crabgrass; [13]) | Sedge, Umbrella plant response rating [9, 16] | Rice plant response rating (rice [10])
40: Cocklebur plant response rating (cocklebur; [14]) | Crabgrass, Large plant response rating (0 to 100 scale) (large crabgrass; [11])
50: Lambsquarters plant response rating (lambsquarters; [12]) | Plant response rating, Rice (rice [6]; 500 g ai/ha, visual rating, 0 = no effect, 100 = complete control)
0: Barnyardgrass plant response rating (barnyardgrass [1]; [12]) | Cocklebur plant response rating (0 to 100 scale) (cocklebur; [11]) | Cocklebur plant response rating (cocklebur; [12]) | Plant response rating, Cocklebur (cocklebur; [13]) | Ducksalad plant response rating (ducksalad [2]; 62 g ai/ha, scale 0 to 100) | Ducksalad plant response rating (ducksalad [2]; [15]) | Morningglory plant response rating (0 to 100 scale) (morningglory; [11]) | Morningglory plant response rating (morningglory; [12]) | Corn plant response rating (corn; [12]) | Barnyardgrass plant response rating (barnyardgrass [5]; [18]) | Barnyardgrass plant response rating (barnyardgrass [5]; [15]) | Crabgrass, Large plant response rating (large crabgrass; [12]) | Sedge, Umbrella plant response rating ([9]; 62 g ai/ha, scale 0 to 100)
75: Plant response rating, Ducksalad (ducksalad [2]; [17])
80: Plant response rating, Barnyardgrass (barnyardgrass [1]; [13]) | Pigweed plant response rating (0 to 100 scale) (pigweed; [11]) | Plant response rating, Sedge, Umbrella [9, 17]
20: Barnyardgrass plant response rating (0 to 100 scale) (barnyardgrass [1]; [11]) | Morningglory plant response rating (morningglory; [14]) | Corn plant response rating (0 to 100 scale) (corn; [11]) | Wheat plant response rating (wheat; [14]) | Rice plant response rating (0 to 100 scale) (rice [6]; 125 g ai/ha, 0 = no effect, 100 = complete control) | Foxtail, Giant plant response rating (giant foxtail; [14]) | Surinam Grass plant response rating (0 to 100 scale) (Surinam grass; [11]) | Surinam Grass plant response rating (Surinam grass; [14]) | Velvetleaf plant response rating (velvetleaf; [14]) | Oat, Wild plant response rating (wild oat; [14])
65: Rice plant response rating (rice [4]; [16]) | Plant response rating, Barnyardgrass (barnyardgrass [5]; [17])
60: Pigweed plant response rating (pigweed; [12]) | Lambsquarters plant response rating (lambsquarters; [14]) | Plant response rating, Surinam Grass (Surinam grass; [13])

CCn1nc(C(C)(C)C)cc1C(=O)Nc1cccc(C(=O)N(C)C)c1 [Compound 49]
50: Ducksalad plant response rating (ducksalad [2]; [22]) | Lambsquarters plant response rating (lambsquarters; [19])
20: Cocklebur plant response rating (cocklebur; [19]) | Corn plant response rating (corn; [19]) | Lambsquarters plant response rating (lambsquarters; [20]) | Plant response rating, Crabgrass, Large (large crabgrass; [21])
25: Rice plant response rating (rice [4]; [22])
15: Rice plant response rating (rice [4]; [18])
70: Plant response rating, Rice (rice [4]; [23]) | Plant response rating, Lambsquarters (lambsquarters; [21]) | Plant response rating, Barnyardgrass (barnyardgrass [5]; [23]) | Barnyardgrass plant response rating (barnyardgrass [8]; visual rating, 13 to 15 days)
0: Plant response rating, Cocklebur (cocklebur; [21]) | Ducksalad plant response rating (ducksalad [2]; [18]) | Morningglory plant response rating (morningglory; [19]) | Morningglory plant response rating (morningglory; [20]) | Plant response rating, Morningglory (morningglory; [21]) | Plant response rating, Corn (corn; [21]) | Wheat plant response rating (wheat; [19]) | Wheat plant response rating (wheat; [20]) | Foxtail, Giant plant response rating (giant foxtail; [20]) | Plant response rating, Foxtail, Giant (giant foxtail; [21]) | Plant response rating, Velvetleaf (velvetleaf; [21]) | Oat, Wild plant response rating (wild oat; [20]) | Blackgrass plant response rating (blackgrass; [19]) | Blackgrass plant response rating (blackgrass; [20])
10: Barnyardgrass plant response rating (barnyardgrass [1]; [20]) | Cocklebur plant response rating (cocklebur; [20]) | Pigweed plant response rating (pigweed; [20]) | Corn plant response rating (corn; [20]) | Foxtail, Giant plant response rating (giant foxtail; [19]) | Surinam Grass plant response rating (Surinam grass; [19]) | Surinam Grass plant response rating (Surinam grass; [20]) | Plant response rating, Surinam Grass (Surinam grass; [21]) | Velvetleaf plant response rating (velvetleaf; [20]) | Crabgrass, Large plant response rating (large crabgrass; [19]) | Crabgrass, Large plant response rating (large crabgrass; [20]) | Oat, Wild plant response rating (wild oat; [19])
80: Plant response rating, Ducksalad (ducksalad [2]; [23]) | Plant response rating, Ducksalad (ducksalad [2]; [17]) | Ducksalad plant response rating (ducksalad [3]; visual rating, 13 to 15 days) | Plant response rating, Barnyardgrass (barnyardgrass [5]; [17]) | Sedge, Umbrella plant response rating ([7]; visual rating, 13 to 15 days) | Plant response rating, Sedge, Umbrella [9, 23] | Plant response rating, Sedge, Umbrella [9, 17]
60: Barnyardgrass plant response rating (barnyardgrass [5]; [22])
30: Barnyardgrass plant response rating (barnyardgrass [1]; [19]) | Plant response rating, Barnyardgrass (barnyardgrass [1]; [21]) | Pigweed plant response rating (pigweed; [19]) | Velvetleaf plant response rating (velvetleaf; [19]) | Rice plant response rating (rice [10]; visual rating, 13 to 15 days)
45: Barnyardgrass plant response rating (barnyardgrass [5]; [18]) | Sedge, Umbrella plant response rating [9, 18] | Sedge, Umbrella plant response rating [9, 22]
40: Plant response rating, Rice (rice [6]; 125 g ai/ha, 0 to 100 scale, 0 is no effect, 100 is complete control)
90: Plant response rating, Pigweed (pigweed; [21]) | Plant response rating, Rice (rice [4]; [17])
